The values that follow come from patent publication US5837548A, “Treatment of inflammation by inhibition of lipid body formation” (Beth Israel Hospital, priority 1995, dated 1998).

Assay [1] deals with human neutrophils. The note with it: cited from earlier work.
Assay [2] has as its system human eosinophils. The note with it: receptor-mediated; cited from earlier work.
Assay [3] deals with human neutrophils. In words: cis-unsaturated fatty acid-induced lipid body formation in human neutrophils (osmium staining, light microscopy enumeration). The format is cell-based. The conditions noted are these: for inhibition at 1 µM / inhibition at 10 µM / inhibition at 5 µM / inhibition at 0.5 µM / inhibition at 1 µg/mL / inhibition at 10 µg/mL: Homo sapiens, Neutrophil, basal subtracted; for inhibition at 1 µM / inhibition at 10 µM: read-out: % inhibition; for inhibition of arachidonic acid-induced lipid body formation / inhibition of oleic acid-induced lipid body formation: human neutrophils, staurosporine 0.1-1.0 μM, aspirin 10 μg/mL, others as in Tables 1 and 2; for inhibition at 1 µg/mL / inhibition at 10 µg/mL: 1 h. How it is done: Neutrophils were purified from fresh human blood obtained by venipuncture from healthy adult volunteers and collected into acidified citrate. After addition of 6% dextran 70 (McGaw, Irvine, Calif.), RBCs were allowed to sediment for 1 hour at room temperature. The leukocyte-rich supernatant was overlaid onto an equal volume of Ficoll-Paque gradient (Piscataway, N.J.), and centrifuged at 400×g for 20 min. […] Residual RBCs were lysed with hypotonic saline.
Human leukocytes (10^6 cells/mL) were incubated with varying concentrations of arachidonic acid (AA), oleic acid (OA) or vehicle at 37° C. in a 5% CO2 /95% O2 atmosphere, and after 1 hour leukocytes (10^5 cells per slide) were cytocentrifuged (550 rpm, 5 min) onto glass slides. During inhibitory studies, neutrophils were pretreated for 1 hour with varying concentrations of enzyme inhibitors, protein synthesis inhibitors, or vehicle as indicated. When PKC inhibitors were used, the pre-incubation time was reduced to 30 minutes to avoid toxic effects to the cells. […] Stock solutions for A23187, D609, U-73122, and indomethacin were prepared in DMSO and stored at -20° C. Aliquots were diluted in Ca^++ /Mg^++ fee HBSS to the indicated concentration immediately prior to use. […] The morphology of fixed cells was observed, and lipid bodies were enumerated with phase contrast microscopy and a 100× objective lens in 50 consecutively scanned leukocytes.
Results were expressed as mean±SEM and were analyzed statistically by means of the analysis of variance followed by the Newman-Keuls-Student test with the level of significance set at p<0.05. Correlation coefficients were determined by linear regression, and correlation analysis was performed by Fisher's r to z transformation with the level of significance set at p<0.05.
^1 Neutrophils (10^6 /ml) were pretreated with protein kinase C
(actinomycin D, cycloheximide) for 30 min or with phospholipase C
inhibitors (D609, U73122) for 1 h. The cells were then stimulated with
vehicle, arachidonic acid (15 μM), or oleic acid (10 μM), for 1 h.
Results are mean ± SEM from fifty consecutively counted neutrophils.
Statistically significant differences between the agonist alone and the
inhibitor are represented by an asterisk(*). Percent inhibition has been
calculated after subtracting out the basal number of lipid bodies/PMN
present prior to stimulation.
^1 Neutrophils (10^6 /ml) were pretreated with the NSAID or
vehicle for 1 h then stimulated with vehicle, arachidonic acid, or oleic
± SEM from fifty consecutively counted neutrophils. Statistically
significant differences between the agonist alone and the NSAID are
represented by an asterisk (*). Percent inhibition has been calculated
after subtracting out the basal number of lipid bodies/PMN present prior

Assay [4] deals with peritoneal macrophages from COX 1 knockout mice. In words: lipid body formation in peritoneal macrophages from cyclooxygenase-1 knockout mice. The assay is classed as cell-based, mouse. The note with it: for % inhibition / lipid bodies (mean ± SEM)/macrophage: COX 1 knockout, AA 15 μM; for inhibition of lipid body formation in macrophages: cyclooxygenase-1-deficient mice, 10 μg/mL. The procedure: (§1) FIG. 4 is a graph illustrating the effects of arachidonic acid and oleic acid on lipid body formation in peritoneal macrophages from wild type (+/+) and cyclooxygenase-1 knockout (-/-) mice. The agonists AA and OA are represented by the square and circle symbols, respectively. The closed symbols represent the wild type mice; the open symbols represent the cyclooxygenase-1 knockout mice. Macrophages (10^6 /mL) were incubated with the agonists AA and OA at varying concentrations for an hour. Lipid bodies were enumerated using light microscopy following osmium staining. Each point represents the mean±SEM from fifty consecutively scanned macrophages.
(§2) Cyclooxygenase-1 and cyclooxygenase-2 knockout mice were generated as recently described (Morham et al., Cell 83:473-482 (1995); Langenbach et al., Cell 83:483-492 (1995)). All experiments were carried out with male 8-12 week old mice. Macrophages from cyclooxygenase genetically deficient mice and wild-type litter mates were obtained by lavaging the peritoneal cavity with 5 mL of cold RPMI containing heparin (20 IU/mL).
(§3) ^1 Peritoneal macrophages from wild type and COX 1 knockout mice were
(§4) pretreated with the NSAID or vehicle for 1h and then stimulated with
(§5) arachidonic acid (AA, 15 μM) or vehicle for 1h. Results are mean ±
(§6) SEM from fifty consecutively counted macrophages. The statistically

For assay [5], the system named is peritoneal macrophages from wild type mice. The experiment in a line: lipid body formation in peritoneal macrophages from wild type mice. The assay is classed as cell-based, mouse. The conditions noted are these: for % inhibition / lipid bodies (mean ± SEM)/macrophage: wild type, AA 15 μM; for inhibition of lipid body formation in macrophages: wild-type mice, 10 μg/mL. How it is done: as §1, §2, §3, §4, §5, §6

The test system of assay [6] is neutrophils (arachidonic acid uptake). In words: 14C-arachidonic acid uptake in arachidonic acid-stimulated neutrophils. The assay is classed as cell-based, human. The note with it: for inhibition of 14C-arachidonic acid uptake: arachidonic acid-stimulated cells, aspirin 10 μg/mL, sodium salicylate 10 μg/mL, indomethacin 1 μg/mL; for 14C-AA uptake: stimulus arachidonate 15 μM, drug 1 μg/ml (table footnote). How it is done:
Neutrophils (10^6 /mL) were labeled with ^14 C-arachidonic acid (0.01 μCi/sample) together with either vehicle, aspirin (10 μg/mL), indomethacin (1 μg/mL) or sodium salicylate (10 μg/mL) for 1 hour. After the incubation period, lipid body formation was elicited by arachidonic acid (15 μM). The cells were washed 3 times in Ca^++ /Mg^++ free HBSS and analysis of incorporated ^14 C-arachidonic acid in the cell pellet was performed by liquid scintillation counting.
^1 The cells were pretreated with ^14 Carachidonic acid (0.01
μCi/sample) plus vehicle, aspirin (10 μg/ml) , sodium salicylate (1
μg/ml) or indomethacin (1 μg/ml) 1 h before the incubation with
arachidonic acid (15 μM). Cells were washed 3 times before the analysi
of incorporated ^14 Carachidonic acid. Results are representative of
independent experiments.

The mark [7] stands for this setting: arachidonic acid 15 μM, inhibitor 1 μM.
[8] abbreviates: arachidonic acid 15 μM, inhibitor 10 μM.
Where [9] appears, read: oleic acid 10 μM, inhibitor 1 μM.
[10] abbreviates: oleic acid 10 μM, inhibitor 10 μM.
The mark [11] stands for this setting: oleic acid 10 μM, NSAID 10 μg/ml, 1 h pretreatment.
[12] abbreviates: arachidonic acid 15 μM, NSAID 10 μg/ml, 1 h pretreatment.
[13] abbreviates: arachidonic acid 15 μM, inhibitor 5 μM.
Setting [14] is: oleic acid 10 μM, inhibitor 5 μM.
[15] abbreviates: arachidonic acid 15 μM, inhibitor 0.5 μM.
Where [16] appears, read: oleic acid 10 μM, inhibitor 0.5 μM.
[17] abbreviates: arachidonic acid 15 μM, NSAID 1 μg/ml, 1 h pretreatment.
Setting [18] is: oleic acid 10 μM, NSAID 1 μg/ml, 1 h pretreatment.

Where a name gives a salt, the structure may show the parent alone. Read-outs that look alike come from different tables or passages of the source.

As usually defined, the inhibition is how much of the control response was suppressed. Broadly, the % inhibition is how much of the control response was suppressed.

Turning to `CCCCCCCC/C=C\CCCCCCCC(=O)OCC(CO)OC(C)=O` (racemic), the “induction of lipid body formation” value in assay [1] is “induce lipid body formation”.
As to `CCCCCC=CCC=CCC=CC=CC(O)CCCC(=O)O` (centres unmarked) [5-HETE, 5-hydroxy-6,8,11,14-eicosatetraenoic acid], the “induction of lipid body formation” value in assay [1] and in assay [2] was “elicit lipid body formation” each time.
For `S=C(S)OC1CC2CC1C1CCCC21` (centres unmarked) [D609], the inhibition at 1 µM was determined as 48% in assay [3] (setting [7]) and 19% in assay [3] (setting [9]). Further, the results for the inhibition at 10 µM in assay [3] (setting [8]) and in assay [3] (setting [10]) were 84% and 46%, respectively. Further, the “lipid bodies (mean ± SEM)/cell” value in assay [3] (setting [7]) is 6.5 ± 0.2 lipid bodies/cell; in assay [3] (setting [8]) it was 5.2 ± 0.2 lipid bodies/cell; in assay [3] (setting [9]), 9.4 ± 0.3 lipid bodies/cell; in assay [3] (setting [10]), 7.8 ± 0.2 lipid bodies/cell.
Turning to `O=C(O)c1ccccc1O` [Na salicylate, salicylic acid (sodium salt)], in assay [4] (NSAID 10 μg/ml), the “% inhibition” value came to 66% and the “lipid bodies (mean ± SEM)/macrophage” value was determined as 4.0 ± 0.4 lipid bodies/macrophage. Further, the “inhibition of lipid body formation in macrophages” value (from here on “inhibition of lipid body formation”) in assay [4] is “significantly inhibited”. Further, in assay [5] (NSAID 10 μg/ml), the “% inhibition” value amounted to 45% and the “lipid bodies (mean ± SEM)/macrophage” value came out at 5.0 ± 0.3 lipid bodies/macrophage. Besides, in assay [5], the “inhibition of lipid body formation” value is given as “significantly inhibited”. In assay [3] (setting [11]), the inhibition at 10 µM came out at 53% and the “lipid bodies (mean ± SEM) PMN” value was 10.1 ± 0.4 lipid bodies/PMN. The “lipid bodies (mean ± SEM) PMN” value in assay [3] (setting [12]) worked out at 7.9 ± 0.4 lipid bodies/PMN. In assay [3], the “inhibition of arachidonic acid-induced lipid body formation” value is “significantly inhibited” and the “inhibition of oleic acid-induced lipid body formation” value is given as “significantly inhibited”. In addition, in assay [6], the “inhibition of 14C-arachidonic acid uptake” value is given as “failed to inhibit” and the 14C-AA uptake is recorded as 7292 cpm.
For the molecule `COc1ccc2c(c1)CC[C@@H]1[C@@H]2CC[C@]2(C)[C@@H](NCCCCCCN3C(=O)C=CC3=O)CC[C@@H]12` [U-73122], the inhibition at 1 µM came to 45% in assay [3] (setting [7]) and 8% in assay [3] (setting [9]). Also, the figures for the inhibition at 5 µM in assay [3] (setting [13]) and in assay [3] (setting [14]) were 85% and 24%, respectively. Besides, the “lipid bodies (mean ± SEM)/cell” value in assay [3] (setting [7]) amounted to 6.6 ± 0.2 lipid bodies/cell; in assay [3] (setting [13]), 4.9 ± 0.2 lipid bodies/cell; in assay [3] (setting [9]), 19.3 ± 0.4 lipid bodies/cell; in assay [3] (setting [14]), 16.9 ± 0.4 lipid bodies/cell.
`COc1ccc2c(c[n+](C)c3c4cc5c(cc4ccc23)OCO5)c1OC` [chelerythrine]: the inhibition at 0.5 µM in assay [3] (setting [15]) is 50%; in assay [3] (setting [16]), 25%. The inhibition at 1 µM was found to be 90% in assay [3] (setting [7]) and 71% in assay [3] (setting [9]). Also, the “lipid bodies (mean ± SEM)/cell” value in assay [3] (setting [15]) is listed as 7.5 ± 0.3 lipid bodies/cell; in assay [3] (setting [7]) it was 5.1 ± 0.3 lipid bodies/cell; in assay [3] (setting [16]), 7.5 ± 0.2 lipid bodies/cell; in assay [3] (setting [9]), 5.8 ± 0.3 lipid bodies/cell.
In the case of `COc1ccc2c(c1)c(CC(=O)O)c(C)n2C(=O)c1ccc(Cl)cc1` [indomethacin], in assay [4] (NSAID 1 μg/ml), the “% inhibition” value came out at 48% and the “lipid bodies (mean ± SEM)/macrophage” value is reported as 4.8 ± 0.4 lipid bodies/macrophage. Also, in assay [4], the “inhibition of lipid body formation” value is “significantly inhibited”. Also, in assay [5] (NSAID 1 μg/ml), the “% inhibition” value was determined as 61% and the “lipid bodies (mean ± SEM)/macrophage” value was determined as 4.4 ± 0.3 lipid bodies/macrophage. Further, the “inhibition of lipid body formation” value in assay [5] was “significantly inhibited”. Also, in assay [3] (setting [17]), the inhibition at 1 µg/mL came to 63% and the “lipid bodies (mean ± SEM) PMN” value is listed as 7.0 ± 0.5 lipid bodies/PMN. In assay [3] (setting [18]), the inhibition at 1 µg/mL came to 61% and the “lipid bodies (mean ± SEM) PMN” value is given as 9.1 ± 0.5 lipid bodies/PMN. Also, in assay [3], the “inhibition of arachidonic acid-induced lipid body formation” value was “significantly inhibited” and the “inhibition of oleic acid-induced lipid body formation” value is “significantly inhibited”. In addition, in assay [6], the “inhibition of 14C-arachidonic acid uptake” value was “failed to inhibit” and the 14C-AA uptake is reported as 7095 cpm.
With `CCCCCCCCCCCCCC(=O)O[C@@H]1[C@@H](C)[C@@]2(O)[C@@H](C=C(CO)C[C@]3(O)C(=O)C(C)=C[C@@H]23)[C@@H]2C(C)(C)[C@]12OC(C)=O` [phorbol-12-myristate-13-acetate], the “induction of lipid body formation” value in assay [1] is “induce lipid body formation”.
As for `CN1C(C(=O)Nc2ccccn2)=C(O)c2ccccc2S1(=O)=O` [piroxicam], in assay [3] (setting [12]), the inhibition at 10 µg/mL amounted to 61% and the “lipid bodies (mean ± SEM) PMN” value was found to be 7.2 ± 0.4 lipid bodies/PMN. Besides, in assay [3] (setting [11]), the inhibition at 10 µg/mL came out at 50% and the “lipid bodies (mean ± SEM) PMN” value is given as 10.4 ± 0.4 lipid bodies/PMN. In addition, in assay [3], the “inhibition of arachidonic acid-induced lipid body formation” value is recorded as “significantly inhibited” and the “inhibition of oleic acid-induced lipid body formation” value is given as “significantly inhibited”.
For the molecule `CN[C@@H]1C[C@H]2O[C@@](C)([C@@H]1OC)n1c3ccccc3c3c4c(c5c6ccccc6n2c5c31)C(=O)NC4` [staurosporine], the “lipid bodies (mean ± SEM)/cell” value in assay [3] (arachidonic acid 15 μM, inhibitor 0.1 μM) is given as 6.1 ± 0.3 lipid bodies/cell; in assay [3] (setting [7]), 5.1 ± 0.2 lipid bodies/cell; in assay [3] (oleic acid 10 μM, inhibitor 0.1 μM), 8.3 ± 0.3 lipid bodies/cell; in assay [3] (setting [9]) it was 7.7 ± 0.3 lipid bodies/cell.
